Laboratory results: publication PMC7880690, “Chemical genetics and proteome-wide site mapping reveal cysteine MARylation by PARP-7 on immune-relevant protein targets” (eLife, 2021)

Biological target: T1, PARP8FL (Homo sapiens, UniProt Q8N3A8)
T1 sequence (Q8N3A8 1-854): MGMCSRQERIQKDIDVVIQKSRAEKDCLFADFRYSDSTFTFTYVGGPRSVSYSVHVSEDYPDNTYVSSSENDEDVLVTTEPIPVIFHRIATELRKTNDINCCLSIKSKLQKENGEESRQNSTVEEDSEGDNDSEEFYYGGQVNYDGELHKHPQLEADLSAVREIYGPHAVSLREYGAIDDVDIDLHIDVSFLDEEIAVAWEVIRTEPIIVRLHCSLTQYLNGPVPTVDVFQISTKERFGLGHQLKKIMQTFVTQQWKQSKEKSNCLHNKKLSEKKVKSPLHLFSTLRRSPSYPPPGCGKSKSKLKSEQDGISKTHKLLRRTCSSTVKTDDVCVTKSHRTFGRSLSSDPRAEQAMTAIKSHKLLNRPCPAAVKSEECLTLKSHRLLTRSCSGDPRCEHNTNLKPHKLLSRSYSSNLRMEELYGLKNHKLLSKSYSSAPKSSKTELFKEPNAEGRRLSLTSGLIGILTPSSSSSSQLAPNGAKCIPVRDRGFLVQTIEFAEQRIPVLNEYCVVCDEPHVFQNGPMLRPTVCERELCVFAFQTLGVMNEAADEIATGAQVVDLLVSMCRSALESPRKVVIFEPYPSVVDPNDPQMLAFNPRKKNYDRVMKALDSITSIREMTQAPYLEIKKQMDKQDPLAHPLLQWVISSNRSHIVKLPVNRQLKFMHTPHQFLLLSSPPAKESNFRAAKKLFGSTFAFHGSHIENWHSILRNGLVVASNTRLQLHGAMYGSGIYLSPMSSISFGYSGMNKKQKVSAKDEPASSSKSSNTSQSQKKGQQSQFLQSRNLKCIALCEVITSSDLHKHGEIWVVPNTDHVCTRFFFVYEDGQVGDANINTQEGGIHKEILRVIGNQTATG
Test: ADP-ribosylation plate assay, PARP8FL

N#Cc1ccc(N2CCN(C(=O)c3cc(Cc4n[nH]c(=O)c5ccccc45)ccc3F)CC2)nc1 [Phthal01, 6-(4-(2-fluoro-5-((4-oxo-3,4-dihydrophthalazin-1-yl)methyl)benzoyl)piperazin-1-yl)nicotinonitrile]
IC50: 4.7 ± 1 µM
